Read-outs that look alike come from different tables or passages of the source.
Key:
[1] = ELISA of relative binding strength of biotin-tagged peptides to stainless steel stents
Procedure: As a specific illustrative example, nonspecific binding sites in wells containing stainless steel stent material in polystyrene microtiter plates were blocked with a buffer containing 1% bovine serum albumin for 2 hours at room temperature. The wells and stainless steel stent material were then washed three times with PBS-T. The plate was incubated for 1 hour at room temperature with shaking at 50 rpm. Each of 17 different phage display libraries was diluted in PBS+1% BSA and was added at a concentration of 10^10 pfu/ml in a total volume of 250 μl. After a 1 hour incubation at room temperature with shaking at 50 rpm, 70 μl of bovine serum was added, and then the plates were incubated at 37° C. with shaking for 1 hour. Unbound phage were removed by washing 3 time with 300 μl of PBS-T. After the final wash, phage bound to stents were used to infect E. coli cells. The infected cells were incubated in 96 deep-well plates, containing 1 ml of growth medium (e.g., 2xYT+5 μg/ml tetracycline) per well, at 37° C. overnight with shaking. Amplified phage-containing supernatant from each well was harvested by centrifugation. Second, third, and fourth rounds of selection were performed in a similar manner to that of the first round, using 150 μl of amplified phage supernatant from the previous round as input, and diluted with 150 μl of PBS-T+1% BSA. From the fourth round of selection, 340 individual clonal phage were then isolated and tested by plating out dilutions of phage pools to obtain single plaques. To detect phage that specifically bound to a metal such as stainless steel, conventional ELISAs were performed using an anti-M13 phage antibody conjugated to horseradish-peroxidase, followed by the addition of chromogenic agent ABTS (2,2′-azinobis(3-ethylbenzthiazoline-6-sulfonic acid). Relative binding strengths of the phage were determined by testing serial dilutions of the phage for binding to stainless steel in an ELISA, using an anti-M13 phage antibody conjugated to horseradish-peroxidase, followed by the addition of chromogenic agent ABTS, and measuring the absorbance at 405 nm. In the ELISA for determining relative binding strengths, the phage titrations were done in either buffer alone, or buffer containing 20% whole blood. The DNA sequence encoding peptides that specifically bound a metallic surface was determined.
Therefore, to determine if the binding specificity for stainless steel is primarily due to the amino acids in the C-terminal half of the amino acid sequence, or if the N-terminal region also impacts binding, peptides consisting essentially of amino acid sequences illustrated as SEQ ID NO:3 and SEQ ID NO:4 were synthesized. The peptides, as listed in Table 2 as SEQ ID NOs: 1, 3, and 4 were each synthesized with a biotin tag, and then assayed for relative binding strengths by ELISA using similar methods as that used for determining the relative binding strengths of phage displaying the peptides (as previously described herein). In this assay, serial dilutions (ranging from 0 μM to 10 μM) of each of the peptides were incubated with the stainless steel stents, washed with PBS-T, and relative binding specificity was quantitated by detecting the colorometric signal resulting from the reaction of streptavidin-alkaline phosphatase (the streptavidin portion binding to the biotin-labeled peptides) with chromogenic substrate. The EC50 was determined from the titration curve. […]

endothelial cells = assay: Adherence of endothelial cells to coated stainless steel disks (luminescent ATP read-out); format: cell-based; conditions: coating at 10 μM for 1 hour; 25,000 endothelial cells, 10% bovine serum, 15 minutes; controls uncoated, SEQ ID NO:3 or irrelevant peptide
Procedure: The biofunctional coating composition comprising an amino acid sequence illustrated as SEQ ID NO:47 was then tested for its ability to selectively adhere cells of endothelial cell lineage to a metallic surface of a medical device. In this example, stainless steel disks were used to represent a metallic surface of a medical device. The disks were contacted with a buffered solution containing the biofunctional coating composition at a concentration of 10 μM for 1 hour at room temperature. As controls for non-specific binding, disks were either uncoated, or coated with the surface-binding domain comprising a peptide consisting essentially of an amino acid sequence of SEQ ID NO:3, or an irrelevant peptide (having no known binding specificity for metal or stainless steel or endothelial cells). The disks were washed with PBS, and then 25,000 endothelial cells were added in cell media containing 10% bovine serum, and incubated at room temperature for 15 minutes. The disks were washed in PBS, and the cells were then quantitated using a commercial luminescent cell viability assay system that measures intracellular ATP using a luminescent read-out. The luminescence was detected using a plate reader.

[2] = ELISA of relative binding strength in buffers from pH 2 to pH 12; conditions: peptide 1 μM, buffers pH 2 to pH 12
Procedure: For determining the effect of pH on binding specificity, the assay for determining relative binding strengths (by ELISA) was performed in the presence of different buffers, varying in pH in a range of from pH 2 to pH 12. For example, a buffer containing glycine and water was adjusted to pH2 using HCl; an acetate buffer was adjusted to pH 4.0 (ionic strength of about 0.001 M); a phosphate buffer (NaH2PO4) was adjusted to pH 6.0 (ionic strength of about 0.012M); a phosphate buffer (NaH2PO4) was adjusted to pH 7.0 (ionic strength of about 0.019M); a tris buffer was adjusted to pH 8.0 (ionic strength of about 0.006M); an ethanolamine buffer was adjusted to pH 10.0 (ionic strength of about 0.003M); and a phosphate buffer (NaH2PO4) was adjusted to pH 12.0 (ionic strength of about 0.044M). The final concentration of each peptide in this assay was 1 μM. Tested in this assay were surface-binding domains comprising a peptide consisting essentially of the amino acid sequence illustrated as SEQ ID NO:3, and the multimers thereof (divalent version (SEQ ID NO:7) and tetravalent version (SEQ ID NO:8)).

[3] = test system: cells of endothelial cell lineage; assay: Additional assays characterizing binding specificity of endothelial-binding domains (EC50); format: cell-based; conditions: read-out: EC50 of endothelial-binding domain
Text: In some embodiments, a binding domain that binds specifically to a particular surface, material or composition binds at least 10%, 20%, 30%, 40%, 50%, 60%, 70%, 80%, 90%, 100%, 200%, 300%, 400%, 500%, or a higher percentage, than the binding domain binds to an appropriate control such as, for example, a different material or surface, or a protein typically used for such comparisons such as bovine serum albumin. For example, binding specificity can determined by an assay in which quantitated is a signal (e.g., fluorescence, or colorimetric) representing the relative amount of binding between a peptide and target cells, as compared to peptide and non-target cells. […] In a preferred embodiment, the binding domain has binding specificity that is additionally characterized by an EC50 of 10 μM or less, and more preferably less than 1 μM. The EC50 can be determined using any number of methods known in the art, such as by generating a concentration response curve from a binding assay in which the concentration of the peptide is titered with a known amount of material or cells for which the peptide has binding specificity (see, for example, methods described in Examples 2 and 3 herein). In such case, the EC50 represents the concentration of peptide producing 50% of the maximal binding observed for that peptide in the assay. […]

[4] = test system: human coronary endothelial cells, porcine coronary endothelial cells, and endothelial progenitor cells; assay: FACS binding of biotin-tagged peptides to cells of endothelial cell lineage in whole blood; format: cell-based, human or Porcine
Procedure: Several of the endothelial-binding domains listed in Table 3 with desirable binding specificities (e.g., SEQ ID NOs: 9-18, 23-28, 30-32, and 35) were further characterized for binding to various cell types in whole blood by FACS, by synthesizing the peptides with a C-terminal biotin tag. Cells were harvested from cell culture flasks using trypsin/EDTA. The cells were neutralized with complete (serum-containing) media and allowed to recover at 37° C. for at least 20 minutes. Each cell type was labeled with its corresponding antibody, as set forth in Table 4, below, and incubated for 20 minutes at room temperature.
The antibody-labeled cells were rinsed twice by centrifugation using washing buffer (HBSS+1% BSA+0.1% sodium azide, sterile-filtered). One hundred (100) μL of whole blood was aliquotted into each well of a deep-well polypropylene plate. Peptides were added to each well to achieve the desired peptide concentration. Minimal volumes of cells (typically 10 μL of cells or approximately 50,000 cells) were added to each well. […] The samples were transferred to an analysis plate and analyzed for cell binding using FACS. In the analysis, controls for each cell type (with relevant antibody as per Table 4, but containing no peptide) were used to assess background fluorescence. […]

[5] = biotin-tagged peptide, serial dilutions 0 μM to 10 μM, stainless steel stents, read-out: EC50 expressed in nanomoles

## NHTISKNHKKKNKNSNKTR [SEQ ID NO:4]
[1]; [5]
  EC50: < 250 nM

## SSFYGEVGYVGASLYAGGASSRG-PEG-SSHRTNHKKNNPKKKNKTRG [SEQ ID NO:47]
Endothelial cells
  number of endothelial cells bound to coated stainless steel disks compared with controls: several fold increase

## SSHRTNHKKNNPKKKNKTR [SEQ ID NO:3]
[1]; [5]
  EC50: < 50 nM
[1]; ethylene oxide 642 mg/L for 2 hours, compared with unsterilized peptide
  effect of ethylene oxide sterilization on relative binding specificity for stainless steel: minimal to no effect
[1]; peptide subjected to ethylene oxide sterilization (642 mg/L for 2 hours), read-out: EC50 for binding to stainless steel after ethylene oxide sterilization
  EC50: < 50 nM
[2]
  optimum pH for binding: 7.0 pH

## FYGEVGYVGASLYAGGAS [SEQ ID NO:19]
[3]
  EC50: < 10000 nM

## AGSSSSVSFVAAAGSAV [SEQ ID NO:14]
[4]
  binding preference between endothelial progenitor cells and endothelial cells: prefer binding to endothelial progenitor cells as compared to endothelial cells

## VVFAASGVAADAGWSVS [SEQ ID NO:32]
[4]
  binding preference between endothelial progenitor cells and endothelial cells: preference for binding endothelial cells

## SGVVDAGVVAEDGVSGEASRSSHRTNHKKNNPKKKNKTR [SEQ ID NO:1]
[1]; [5]
  EC50: < 250 nM

## SEQ ID NO:7 (SSHRTNHKKNNPKKKNKTRGSSHRTNHKKNNPKKKNKTRG)
[2]
  optimum pH for binding: 7.0 pH

Source: patent publication US7531505B2, “Compositions and methods for promoting attachment of cells of endothelial cell lineage to medical devices” (Affinergy, Inc., priority 2006, dated 2009)
